# Reference: ChEMBL document CHEMBL1201862, “PubChem BioAssay data set” (2004)
#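 Test compounds were applied to cells in 96-well plates for 48 hours at 5 doses. GI50 is the concentration that inhibits growth by half.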 Calls of active or inactive are those of the source. No stated cut-off is given here; in the data, active = GI50 up to about 1.1 µM and inactive = higher.
# Columns and labels:
# Experiment in all cases: NCI tumour cell line growth inhibition, 48 h
# [1] = test system: T47D
# [2] = test system: SF-295
# [3] = test system: SW-620
# [4] = test system: A549
# [5] = test system: RPMI-8226
# [6] = test system: MCF7
# [7] = test system: UO-31
# [8] = test system: IGROV-1
# [9] = test system: SF-268
# [10] = test system: CCRF-CEM
# [11] = test system: RXF 393
# [12] = test system: SK-MEL-2
# [13] = test system: UACC-257
# [14] = test system: CAKI-1
# [15] = test system: OVCAR-8
# [16] = test system: PC-3
# [17] = test system: SNB-75
# [18] = test system: NCI-H460
# [19] = test system: SK-OV-3
# [20] = test system: EKVX
# [21] = test system: 786-0
# [22] = test system: U-251
# [23] = test system: KM12
# [24] = test system: NCI-H23
# [25] = test system: K562
# [26] = test system: COLO 205
# [27] = test system: SK-MEL-5
# [28] = test system: Malme-3M
# [29] = test system: HT-29
# [30] = test system: TK-10
# [31] = test system: MOLT-4
# [32] = test system: MDA-MB-435
# [33] = test system: HCC 2998
# [34] = test system: HCT-116
# [35] = test system: SK-MEL-28
# [36] = test system: SNB-19
# [37] = test system: LOX IMVI
# [38] = test system: OVCAR-5
# [39] = test system: Hs-578T
# [40] = test system: SR
# [41] = test system: M14
# [42] = test system: NCI-H522
# [43] = test system: ACHN
# [44] = test system: UACC-62
# [45] = test system: HCT-15
# [46] = test system: SN12C
# [47] = test system: BT-549
# [48] = test system: OVCAR-4
# [49] = test system: NCI/ADR-RES
# [50] = test system: DU-145
# [51] = test system: HOP-62
# [52] = test system: MDA-N
# [53] = test system: MDA-MB-231
# [54] = test system: NCI-H226
# [55] = test system: HOP-92
# [56] = test system: OVCAR-3
# [57] = test system: A498
# [58] = test system: HL-60
# [59] = test system: SF-539
compound,measurement,setting,value
COC[C@H](Cc1ccccc1)/N=C/c1ccccc1,GI50,[1],> 100 µM (inactive)
same,GI50,[2],> 100 µM (inactive)
same,GI50,[3],> 100 µM (inactive)
same,GI50,[4],> 100 µM (inactive)
same,GI50,[5],> 100 µM (inactive)
same,GI50,[6],> 100000 nM (inactive)
same,GI50,[7],> 100 µM (inactive)
same,GI50,[8],> 100 µM (inactive)
same,GI50,[9],> 100 µM (inactive)
same,GI50,[10],> 100 µM (inactive)
same,GI50,[11],> 100 µM (inactive)
same,GI50,[12],> 100 µM (inactive)
same,GI50,[13],> 100 µM (inactive)
same,GI50,[14],> 100 µM (inactive)
same,GI50,[15],> 100 µM (inactive)
same,GI50,[16],> 100 µM (inactive)
same,GI50,[17],> 100 µM (inactive)
same,GI50,[18],> 100 µM (inactive)
same,GI50,[19],> 100 µM (inactive)
same,GI50,[20],> 100 µM (inactive)
same,GI50,[21],> 100 µM (inactive)
same,GI50,[22],> 100 µM (inactive)
same,GI50,[23],> 100 µM (inactive)
same,GI50,[24],> 100 µM (inactive)
same,GI50,[25],> 100 µM (inactive)
same,GI50,[26],> 100 µM (inactive)
same,GI50,[27],> 100 µM (inactive)
same,GI50,[28],> 100 µM (inactive)
same,GI50,[29],> 100 µM (inactive)
same,GI50,[30],> 100 µM (inactive)
same,GI50,[31],> 100 µM (inactive)
same,GI50,[32],> 100 µM (inactive)
same,GI50,[33],> 100 µM (inactive)
same,GI50,[34],> 100 µM (inactive)
same,GI50,[35],> 100 µM (inactive)
same,GI50,[36],> 100 µM (inactive)
same,GI50,[37],> 100 µM (inactive)
same,GI50,[38],> 100 µM (inactive)
same,GI50,[39],> 100 µM (inactive)
same,GI50,[40],> 100 µM (inactive)
same,GI50,[41],> 100 µM (inactive)
same,GI50,[42],> 100 µM (inactive)
same,GI50,[43],> 100 µM (inactive)
same,GI50,[44],> 100 µM (inactive)
same,GI50,[45],> 100 µM
same,GI50,[46],> 100 µM (inactive)
same,GI50,[47],> 100 µM (inactive)
same,GI50,[48],> 100 µM (inactive)
same,GI50,[49],> 100 µM (inactive)
same,GI50,[50],> 100 µM (inactive)
same,GI50,[51],> 100 µM (inactive)
O=[N+]([O-])/C(Cl)=C(/C(Cl)=C(Cl)Cl)N1CCCCC1,GI50,[1],11.8 µM (inactive)
same,GI50,[2],23.7 µM (inactive)
same,GI50,[52],8.34 µM (inactive)
same,GI50,[4],12.6 µM (inactive)
same,GI50,[5],4.43 µM (inactive)
same,GI50,[6],444 nM (active)
same,GI50,[7],8.15 µM (inactive)
same,GI50,[8],10.6 µM (inactive)
same,GI50,[9],11.9 µM (inactive)
same,GI50,[10],4.73 µM (inactive)
same,GI50,[11],7.26 µM (inactive)
same,GI50,[12],25.2 µM (inactive)
same,GI50,[53],24 µM (inactive)
same,GI50,[14],11.8 µM (inactive)
same,GI50,[54],13.9 µM (inactive)
same,GI50,[15],4.14 µM (inactive)
same,GI50,[16],18.8 µM (inactive)
same,GI50,[17],18.8 µM (inactive)
same,GI50,[18],18.7 µM (inactive)
same,GI50,[19],28.5 µM (inactive)
same,GI50,[20],20.3 µM (inactive)
same,GI50,[21],11.3 µM (inactive)
same,GI50,[22],11.8 µM (inactive)
same,GI50,[55],16.1 µM (inactive)
same,GI50,[23],14.5 µM (inactive)
same,GI50,[56],10.8 µM (inactive)
same,GI50,[24],8.49 µM (inactive)
same,GI50,[25],7.64 µM (inactive)
same,GI50,[26],10 µM (inactive)
same,GI50,[27],6.44 µM (inactive)
same,GI50,[57],18.4 µM (inactive)
same,GI50,[58],2.64 µM (inactive)
same,GI50,[28],2.7 µM (inactive)
same,GI50,[29],14.9 µM (inactive)
same,GI50,[30],21.4 µM (inactive)
same,GI50,[59],16.4 µM (inactive)
same,GI50,[31],3.27 µM (inactive)
same,GI50,[32],8.81 µM (inactive)
same,GI50,[33],15.9 µM (inactive)
same,GI50,[34],6.18 µM (inactive)
same,GI50,[35],14.5 µM (inactive)
same,GI50,[36],24.5 µM (inactive)
same,GI50,[37],7.33 µM (inactive)
same,GI50,[38],14.9 µM (inactive)
same,GI50,[39],5.06 µM (inactive)
same,GI50,[40],3.16 µM (inactive)
same,GI50,[41],11.2 µM (inactive)
same,GI50,[42],6.44 µM (inactive)
same,GI50,[43],16.1 µM (inactive)
same,GI50,[44],4.21 µM (inactive)
same,GI50,[45],4.36 µM
same,GI50,[46],14.2 µM (inactive)
same,GI50,[48],13.8 µM (inactive)
same,GI50,[49],4.06 µM (inactive)
same,GI50,[50],14 µM (inactive)
same,GI50,[51],22.6 µM (inactive)
CC[C@@]1(O)C(=O)OCc2c1cc1n(c2=O)Cc2c-1nc1ccccc1c2/C=N\c1ccc(N[C@@H]2c3cc4c(cc3[C@@H](c3cc(OC)c(O)c(OC)c3)[C@H]3C(=O)OC[C@@H]32)OCO4)cc1,GI50,[1],< 0.014 µM (active)
same,GI50,[4],0.038 µM (active)
same,GI50,[6],< 10 nM (active)
same,GI50,[7],0.0403 µM (active)
same,GI50,[9],< 0.0185 µM (active)
same,GI50,[13],0.315 µM (active)
same,GI50,[18],< 0.01 µM (active)
same,GI50,[21],< 0.0104 µM (active)
same,GI50,[22],0.171 µM (active)
same,GI50,[24],0.0198 µM (active)
same,GI50,[25],0.0585 µM (active)
same,GI50,[27],0.0315 µM (active)
same,GI50,[31],< 0.01 µM (active)
same,GI50,[34],0.033 µM (active)
same,GI50,[36],0.0446 µM (active)
same,GI50,[40],< 0.01 µM (active)
same,GI50,[41],0.0194 µM (active)
same,GI50,[42],0.0427 µM (active)
same,GI50,[43],< 0.01 µM (active)
same,GI50,[47],0.11 µM (active)
same,GI50,[50],< 0.01 µM (active)
same,GI50,[51],< 0.0136 µM (active)
